Consider one molecule from patent US20240199562A1, “UREA DERIVATIVES FOR TREATING UVEAL MELANOMA” (CENTRE NATIONAL DE LA RECHERCHE SCIENTIFIQUE, priority 2021, published 2024).

The test system of series [1] is MM66 cells. In words: Cell viability (XTT) on uveal melanoma cells MM66. In kind it is cell-based. As for the experimental part: (§1) FIG. 1: In vitro efficacy of MCK140 and MCK151 on uveal melanoma cells. Cells were treated for 48 hours with increasing doses of MCK140 or MCK151 and the cell viability was then evaluated by XTT.
(§2) FIG. 2A: In vitro efficacy of MCK151, Ladarixin, and AZD-5069 in uveal melanoma cells. MP41 and MM66 cells were treated for 48 hours with increasing doses of MCK151 or Ladarixin or AZD-5069 and the cell metabolism was then evaluated by XTT.
(§3) Cell culture: Uveal melanoma cells were derived from the primary tumor (eye tumor, MP38 and MP46) and one is from liver metastasis (MM66) were a kind gift from Dr. Roman Roman (Curie Institute). UM cells were cultured in RPMI medium supplemented with 20% FBS.
(§4) Cell viability (XTT): Cells (5×10^3 cells/100 μl) were incubated in a 96-well plate with different effectors for the times indicated in the figure legends. 50 μl of sodium 3′-[1-phenylaminocarbonyl)-3,4-tetrazolium]-bis(4-methoxy-6-nitro) benzene sulfonic acid hydrate (XTT) reagent was added to each well. The assay is based on the cleavage of the yellow tetrazolium salt XTT to form an orange formazan dye by metabolically active cells. Absorbance of the formazan product, reflecting cell viability, was measured at 490 nm. Each assay was performed in quadruplicate.
Background: Tetrazolium assays rely on reduction of a dye to a coloured formazan, in cell work by metabolically active cells.

Series [2] deals with MP41 cells. The experiment in a line: ROS assay (CellROX Deep Red, cytometry). In kind it is cell-based. The note with it: MCK151 1, 2.5, 5 μM, Ladarixin 10 μM, FIG. 2B. As for the experimental part: FIG. 2B: Inhibition of ROS production by MCK151 and Ladarixin in uveal melanoma cells. MP41 cells were treated for 48 hours with increasing doses of MCK151 (1 μM, 2.5 μM, and 5 μM) or Ladarixin (10 μM) and ROS quantity was evaluated by cytometry.
ROS assay: Deep Red Reagent was used to assess the level of intracellular ROS. The CellROX/Deep Red reagent (which is initially non-fluorescent) freely enters the cells, where it is cleaved by endogenous esterases. After oxidization by ROS, the reagent becomes highly fluorescent with an absorption/emission maximal of 644/665 nm. Cells were treated 24h and incubated at 37° C. with CellROX Deep Red reagent (0.01 umol/L) for 2 h. The cells were then washed with PBS and analyzed by cytometry.

Series [3] relates to MM66 cells. In words: Migration assay (Boyden chamber). The format is cell-based. As for the experimental part:
FIG. 3A: Evaluation of the migration ability of uveal cells treated with MCK151. MP41 and MM66 cells migration was analysed using Boyden chamber assays in the presence/absence of MCK151 (0.1 to 2.5 μM). Representative images were shown. ** p<0.01, *** p<0.001
Migration assays: 50 000 cells were cultured in RPMI 0% FCS and seeded in Boyden chambers. After 24 h, Boyden chambers were washed with PBS. Migrative cells were fixed with paraformaldehyde 3% and colored with crystal violet.

In series [4] the test system is MP41 cells. The experiment in a line: Tumor xenograft, intraperitoneal injection. In kind it is in vivo, mice. The method, then:
FIG. 4: In vivo efficacy of MCK151 on mice treated by intraperitoneal injection. Five million MP41 cells were injected subcutaneously into the flank of 5-week-old NOD-SCID female mice. When the tumor reached 100 mm^3, mice were treated every day for 20 days, by intraperitoneal injection with placebo (dextrose water vehicle) or MCK151 (200 or 400 μg in dextrose water vehicle) • A: The tumor volume was evaluated using a calliper. The results are presented as the means±sd. ** p<0.01 • B: Tumor weight at the end of the experiment. ** p<0.01, *** p<0.001 • C: Animal weight at the end of the experiment. ns: non significant
(§5) Tumor xenograft experiments: These studies were carried out in strict accordance with the recommendations in the Guide for the Care and Use of Laboratory Animals. Our experiments were approved by the “Comité National Institutionnel d'Ethique pour l'Animal de Laboratoire”. Five million MP41 cells were injected subcutaneously into the flank of 5-week-old Nod-SDIC female mice (Janvier). When the tumor reached 100 mm3, mice were treated. The tumor volume was determined with a caliper (v=L*l2*0.5).

Another series concerns MP38 cells. The experiment in a line: Cell viability (XTT) on uveal melanoma cells MP38. The format is cell-based. The method, then:
as §1, §3, §4

Series [5] deals with MP41 cells. In words: Tumor xenograft, gavage. The note with it: orally. In kind it is in vivo, mice. The method, then: FIG. 5: In vivo efficacy of MCK151 on mice treated by gavage. Five million MP41 cells were injected subcutaneously into the flank of 5-week-old NOD-SCID female mice. When the tumor reached 100 mm^3, mice were treated every day for 27 days, by gavage with placebo (10% ethanol vehicle) or MCK151 (33 or 100 mg/kg in 10% ethanol vehicle). • A: The tumor volume was evaluated using a calliper. The results are presented as the means±sd. ** p<0.01, *** p<0.001 • B: Tumor weight at the end of the experiment. ** p<0.01, *** p<0.001 ns: non significant • C: Animal weight at the end of the experiment. ns: non significant
as §5
An oral formulation (10% ethanol in ultrapure water) was developed and tested in the same in vivo model (FIG. 5). […] However, a 100 mg/kg dose reduced tumor growth (50% reduction, FIG. 5A).

In the next series the test system is MMP9 mRNA. The experiment in a line: MMP9 mRNA levels by RT-qPCR. In kind it is cell-based. The following applies: MP41 and MM66 cells, 24 hours, 2.5 μM, FIG. 3B. As for the experimental part: FIG. 3B: MMP9 mRNA levels (AU) in uveal melanoma cells. MP41 and MM66 cells were treated for 24 hours with MCK151 (2.5 μM) and MMP9 mRNA levels were evaluated by qPCR. *** p<0.001.
Analyses by RT-qPCR: RNA from cells were purified with the RNeasy Mini Kit (Quiagen). The “QuantiTect Reverse Transcription Kit” (Qiagen) was used for cDNA obtention. The PCR program was executed on “Professional Basic Thermocycler” (Biometra). SYBR master mix plus (Eurogentec) was used for qPCR. The mRNA levels were normalized to 36B4 mRNA.
On the technique in general: Quantitative PCR measures a nucleic acid by following its amplification.

The test system of series [6] is MP41 cells. In words: Cell viability (XTT) on uveal melanoma cells MP41. The format is cell-based. The note with it: for IC50: MP41 cells (primary tumor). As for the experimental part: as §1, §2, §3, §4
The subject of a further series is SLUG. The experiment in a line: SLUG protein amount by immunoblotting. The format is cell-based. The note with it: MP41 and MM66 cells, 2.5 μM, 0-24 h, FIG. 3C. As for the experimental part:
FIG. 3C: Slug proteins amount in uveal melanoma cells treated by MCK151. MP41 and MM66 cells were treated with MCK151 (2.5 μM) for different time (0, 2, 4, 6, 8, and 24 h). SLUG protein amounts were evaluated by immunoblotting. HSP90 is used as a loading control.
Immunoblotting: Cells were lysed in SDS 7.5%; glycerol 30%; Tris 0.3 M pH 6.8 lysis buffer. 30 μg of proteins were separated on 10% SDS—polyacrylamide gels and transferred on PVDF membranes. The following primary antibodies were used: SLUG (Cell signaling, ref:9585) and HSP90 (Cell signaling, ref:4877).
For orientation: In western blotting, separated proteins are transferred to a membrane and probed.

Like-named read-outs stand apart in the source and are kept apart here.

As usually defined, the IC50 is the concentration at which inhibition is half-maximal. In the case of `O=C(Nc1cc(Cl)cc(Cl)c1)Nc1nc2ccc([N+](=O)[O-])cc2s1` [MCK151, 1-(3,5-dichlorophenyl)-3-(6-nitrobenzo[d]thiazol-2-yl)urea], the IC50 stood at 1.5 µM with MM66 cells [1] (MM66 cells (liver metastases), 48 h, Table 3, read-out: IC50 (μM) at 48 h MM66); 1.5 µM in the series on MM66 cells [1] (MM66 cells (liver metastasis), 48 hours, XTT, Table 2, read-out: IC50 (μM) UM MM66); 1 µM in the series on MP38 cells (MP38 cells (primary tumor), 48 hours, XTT); 1.25 µM in the series on MP41 cells [6] (48 h, Table 3, read-out: IC50 (μM) at 48 h MP41); 1.25 µM with MP41 cells [6] (48 hours, XTT, Table 2, read-out: IC50 (μM) UM MP41). The viability of cells result with MM66 cells [1] (MM66 cells from liver metastases, in words) is on record as “decreased the viability”; in the series with MP38 cells (MP38 cells from the primary tumor, in words), “decreased the viability”; in the series with MP41 cells [6] (MP41 cells from the primary tumor, in words), “decreased the viability”. In addition, the “metabolism of UM cells (XTT)” value is reported as “strongly inhibits the metabolism of UM cells” in the series on MM66 cells [1] (MM66 cells, 48 hours, increasing doses, FIG. 2A) and “strongly inhibits the metabolism of UM cells” in the series on MP41 cells [6] (MP41 cells, 48 hours, increasing doses, FIG. 2A). In the series on MP41 cells [2], the “ROS production by UM cells” value is on record as “inhibits ROS production”. The “concentration of optimal effect on migration” value with MM66 cells [3] (Boyden chamber) was found to be 0.5 µM. The migration ability result in the series on MM66 cells [3] (MCK151 0.1 to 2.5 μM, FIG. 3A) is on record as “inhibits this migration ability”. Besides, in the series with MP41 cells [4] (NOD-SCID mice, 400 μg dose, FIG. 4A), the “inhibition of tumor growth” value was 73%. Moreover, the “growth of experimental tumors” value in the series on MP41 cells [4] (NOD-SCID mice, 200 or 400 μg every day for 20 days, FIG. 4A) is reported as “inhibited”. In addition, the “tumors at the end of the experiment” value in the series on MP41 cells [4] (NOD-SCID mice, FIG. 4B (tumor weight)) is recorded as “smaller”. Further, the weight of mice result with MP41 cells [4] (whatever the concentration, FIG. 4C) was “did not modify the weight of mice”. For the same molecule, in the series with MP41 cells [5] (33 mg/kg per day, FIG. 5), the tumor growth result is “had a trend to decrease tumor growth”. In addition, the “reduction of tumor growth” value in the series with MP41 cells [5] (100 mg/kg dose, FIG. 5A) is recorded as 50%. Also, the “reduction of tumor weight” value in the series with MP41 cells [5] (100 mg/kg dose, FIG. 5B) is recorded as 50%. Moreover, the mice weight entry in the series with MP41 cells [5] (33 and 100 mg/kg/day, FIG. 5C) was “did not modify mice weight”. In the series with MMP9 mRNA, the “MMP9 mRNA levels” value was “decreases MMP9 mRNA levels”. In the series with SLUG, the “expression of SLUG” value is listed as “decreases”.
